# According to US20240325370A1, “THERAPEUTIC REGIMENS OF A DEGRADER OF BRD9” (FOGHORN THERAPEUTICS INC., priority 2021, published 2024):
# How the values were obtained:
# [1] = Plasma exposure of compound S-D1 after the last dose; type: in vivo, mice
# Experimental: The objective of this study was to provide proof-of-concept of anti-tumor efficacy with intermittent dosing schedules for compound S-D1 by IV administration. Groups of female SYO-1 tumor-bearing NOD SCID mice (n=10/group) were dosed IV with vehicle, compound D1 or compound S-D1 for 24 days according to treatments and dosing schedules shown in Table 10. Compound D1 was formulated in 10% DMSO/40% PEG400/50% water and compound S-D1 was formulated in 20% SBECD in 5 mM citrate buffer, final pH was adjusted to 5 with 1 N NaOH. For the compound S-D1 treatment groups, plasma samples were collected at designated time points following the last dosing. Plasma samples were acidified to stabilize the compound right after collection and analyzed for compound S-D1 concentrations.
# BRD9 [2] = target: T1, BRD9 (Homo sapiens, UniProt Q9H8M2); test: Drug washout experiments in SYO-1, ASKA and OCI-AML2 cell lines; conditions: followed by washout
# T1 sequence (Q9H8M2 1-597): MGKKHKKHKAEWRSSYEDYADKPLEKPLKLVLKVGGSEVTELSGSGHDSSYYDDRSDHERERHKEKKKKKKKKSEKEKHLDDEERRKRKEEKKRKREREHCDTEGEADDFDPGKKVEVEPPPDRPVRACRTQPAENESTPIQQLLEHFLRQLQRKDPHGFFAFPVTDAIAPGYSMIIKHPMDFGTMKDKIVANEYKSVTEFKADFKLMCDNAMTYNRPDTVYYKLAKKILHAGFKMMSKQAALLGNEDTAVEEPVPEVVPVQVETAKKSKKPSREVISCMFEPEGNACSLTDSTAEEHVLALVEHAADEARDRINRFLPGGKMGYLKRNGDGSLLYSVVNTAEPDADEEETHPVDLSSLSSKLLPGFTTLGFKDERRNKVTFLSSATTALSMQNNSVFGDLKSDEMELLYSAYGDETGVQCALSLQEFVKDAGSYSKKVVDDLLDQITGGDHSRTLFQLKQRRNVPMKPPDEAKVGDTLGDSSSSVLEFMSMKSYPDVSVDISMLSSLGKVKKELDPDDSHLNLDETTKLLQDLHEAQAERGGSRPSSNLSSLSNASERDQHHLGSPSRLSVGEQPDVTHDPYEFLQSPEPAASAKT
# Experimental: Drug Washout Experiments in SYO-1, ASKA, and OCI-AML2 Cell Lines. To assess the duration of BRD9 protein degradation and recovery post-drug washout, extensive washout experiments were conducted in three cell lines and BRD9 protein levels were assessed through western blot analyses. SYO-1 and ASKA are adherent synovial sarcoma cell lines. OCI-AML2 is an acute myeloid leukemia suspension cell line.
# Adherent cells, SYO-1 and ASKA, grown in flasks to log phase growth, were washed with PBS and dissociated by adding TrypLE™ Express.
# SYO-1 cells counted and seeded into 6-well plates at a density of 0.5×10^6 cells per well in 2 mL cell culture medium. Two wells were allocated per sample. Plates were incubated at 37° C. with 5% CO2 overnight. […] After 6 hours of incubation, 1×10^6 cells or 2 wells per treated group were harvested and frozen down at −80° C. for the 6-hour treatment sample. The remainder of the compound treated wells were washed four times by replacing all the drug-treated media with an equal volume of fresh media. After the final wash step, cells were incubated in 2 mL fresh media at 37° C. with 5% CO2 for the time points indicated. Washout steps were not performed on wells treated with 0.1% DMSO and cells were harvested at the time indicated.
# Two wells were allocated per sample. Plates were incubated at 37° C. with 5% CO2 overnight. […]
# BRD9 [3] = target: T1, BRD9; test: Tumor BRD9 modulation after each regimen, SYO-1 xenograft (western blot); type: in vivo, mice; set-up: from tissue; host or cells: SYO-1 xenograft tumours in BALB/c nude or NOD SCID mice
# Description: (§1) The racemate, compound D1, which consists of ˜50% compound S-D1, was utilized in an SYO-1 (a synovial sarcoma xenograft) model to explore if similar efficacy is achievable with an intermittent dosing schedule. Due to technical feasibility and animal-welfare considerations, intraperitoneal (IP) administration was chosen over the IV route. […] Groups of female SYO-1 tumor-bearing NOD SCID mice (n=8/group) were intraperitoneally administered with vehicle or compound D1 for 21 days. Compound D1 was formulated as a suspension in 10% DMSO/40% PEG400/50% deionized water, volume/volume (v/v). […] To determine the level of modulation of BRD9 after each regimen, mice (n=4 mice/time-point) were euthanized and tumor samples were collected at different timepoints post-last dose (Day 21). […] BRD9 levels were assessed at 24, 72 and 168 hours (expected time points of trough plasma concentrations) for QD, BIW, and QW regimens respectively, as indicated in Table 8. Samples were analyzed using Western blot method.
# [4] = test system: SYO-1 synovial sarcoma xenograft; test: Intermittent dosing schedules, IP, SYO-1 synovial sarcoma xenograft efficacy; type: in vivo, mice; conditions: for Day 21 Tumor Growth (%) / Day 21 Tumor Size (mm^3): SYO-1 tumor-bearing NOD SCID mice, Mean ± SEM
# Description: as §1
# [5] = 0.1 mg/kg QD × 21 days IP, Day 21
# [6] = 0.35 mg/kg BIW × 3 weeks IP, Day 21
# [7] = 0.5 mg/kg QD × 21 days IP, Day 21
# [8] = 0.7 mg/kg QW × 3 weeks IP, Day 21
# [9] = 3.5 mg/kg QW × 3 weeks IP, Day 21
structure (smiles),measurement,setting,value
"COc1cc(-c2cn(C)c(=O)c3cnc(N4CCC4)cc23)cc(OC)c1CN1CCC(CN2CCC3(CC2)CN(c2ccc4c(c2)C(=O)N([C@H]2CCC(=O)NC2=O)C4)C3)CC1 (single isomer, unassigned) [Compound S-D1]",exposure in plasma versus dose,[1]; from 0.05 to […] IV,increased more than proportionally to dose
same,exposure in plasma versus dose,[1]; from 0.25 to 2 mg/kg IV,slightly less than proportionally to dose
"COc1cc(-c2cn(C)c(=O)c3cnc(N4CCC4)cc23)cc(OC)c1CN1CCC(CN2CCC3(CC2)CN(c2ccc4c(c2)C(=O)N(C2CCC(=O)NC2=O)C4)C3)CC1 (racemic) [Compound D1, 3-[6-(7-[[1-([4-[6-(azetidin-1-yl)-2-methyl-1-oxo-2,7-naphthyridin-4-yl]-2,6-dimethoxyphenyl]methyl)piperidin-4-yl]methyl]-2,7-diazaspiro[3.5]nonan-2-yl)-1-oxo-3H-isoindol-2-yl]piperidine-2,6-dione]",continued BRD9 depletion after washout,"BRD9 [2]; ASKA and OCI-AML2 cells, 15.6 nM for 6 h",reproduced
same,BRD9 depletion after washout,BRD9 [2]; SYO-1 cells treated with 15.6 nM for 6 h,continued depletion of BRD9 up to 7 days
same,BRD9 PD effect in tumor at Cmin,BRD9 [3]; 0.35 mg/kg BIW or 0.7 mg/kg QW treatment,intermediate PD effect
same,BRD9 depletion in tumor at Cmin,BRD9 [3]; 3.5 mg/kg QW and 0.5 mg/kg QD treated groups,Nearly complete BRD9 depletion
same,T/C (%),[4]; [5],25.4%
same,TGI (%),[4]; [5],74.6%
same,Day 21 Tumor Growth (%),[4]; 0.1 mg/kg QD × 21 days IP,535 ± 39%
same,Day 21 Tumor Size (mm^3),[4]; 0.1 mg/kg QD × 21 days IP,552 ± 59 mm^3
same,T/C (%),[4]; [6],49.0%
same,TGI (%),[4]; [6],51.0%
same,Day 21 Tumor Growth (%),[4]; 0.35 mg/kg BIW × 3 weeks IP,1033 ± 64%
same,Day 21 Tumor Size (mm^3),[4]; 0.35 mg/kg BIW × 3 weeks IP,1179 ± 117 mm^3
same,T/C (%),[4]; [7],13.4%
same,TGI (%),[4]; [7],86.6%
same,Day 21 Tumor Growth (%),[4]; 0.5 mg/kg QD × 21 days IP,284 ± 21%
same,Day 21 Tumor Size (mm^3),[4]; 0.5 mg/kg QD × 21 days IP,341 ± 57 mm^3
same,T/C (%),[4]; [8],45.1%
same,TGI (%),[4]; [8],54.9%
same,Day 21 Tumor Growth (%),[4]; 0.7 mg/kg QW × 3 weeks IP,951 ± 115%
same,Day 21 Tumor Size (mm^3),[4]; 0.7 mg/kg QW × 3 weeks IP,1065 ± 107 mm^3
same,T/C (%),[4]; [9],18.0%
same,TGI (%),[4]; [9],82.0%
same,Day 21 Tumor Growth (%),[4]; 3.5 mg/kg QW × 3 weeks IP,379 ± 43%
same,Day 21 Tumor Size (mm^3),[4]; 3.5 mg/kg QW × 3 weeks IP,449 ± 69 mm^3
same,TGI compared to the vehicle control,"[4]; all dosing regimens, IP, Day 21",significant TGI
